In BindingDB's records for doi:10.1016/s0960-894x(99)00397-2 (Chungnam National University, 1999):

Molecular target: DNA topoisomerase 1 (Bos taurus)
Test: Compound was evaluated for the inhibition of DNA topoisomerase-1 of calf thymus

Row | SMILES | IC50 [µM]
1 | COc1cc(C(C)O)c(OC)c2c1C(=O)C=CC2=O (stereo not given) [6-(1-Hydroxy-ethyl)-5,8-dimethoxy-[1,4]naphthoquinone] | 111
2 | CCCCCCC(O)c1cc(OC)c2c(c1OC)C(=O)C=CC2=O (stereo not given) [6-(1-Hydroxy-heptyl)-5,8-dimethoxy-[1,4]naphthoquinone] | 30.1
3 | CCCCCC(O)c1cc(OC)c2c(c1OC)C(=O)C=CC2=O (stereo not given) [6-(1-Hydroxy-hexyl)-5,8-dimethoxy-[1,4]naphthoquinone] | 39
4 | CCCCCCCC(O)c1cc(OC)c2c(c1OC)C(=O)C=CC2=O (stereo not given) [6-(1-Hydroxy-octyl)-5,8-dimethoxy-[1,4]naphthoquinone] | 43.9
5 | CCC(O)c1cc(OC)c2c(c1OC)C(=O)C=CC2=O (stereo not given) [6-(1-Hydroxy-propyl)-5,8-dimethoxy-[1,4]naphthoquinone] | 122
